Measured values taken from patent publication US20140171465A1, “Methods For Increasing Reticulocyte Hemoglobin Content” (FibroGen, Inc., priority 2011, published 2014).

Experiments:
Assay type in all cases: in vivo
[1] = tested on: human subjects with end-stage renal disease; experiment: Reticulocyte hemoglobin content (CHr) in human subjects with end-stage renal disease, 6 weeks TIW; details: for Mean Change (pg) from Baseline CHr at Day 43 (6 weeks) of Treatment: ESRD on hemodialysis, no IV iron
Description: The effect of a compound of the present invention on CHr was determined in human subjects with end-stage renal disease as follows. In the current studies, subjects had been receiving stable maintenance hemodialysis for at least 4 months prior to the initiation of the present study. Additionally, subjects had been maintained on standard of care stable doses of epoetin alfa for the treatment of anemia prior to initiation of the present study.
In order to examine differences in the CHr response in subjects treated with compound of the invention compared to the CHr response in subject treated with epoetin alpha (the current standard of care), all IV iron supplementation was halted two weeks prior to treatment initiation. Administration of oral iron was allowed.
[…] Baseline CHr levels were determined prior to treatment (mean of two screening period measurements with the Day 1 measurement). CHr levels were measured weekly throughout the six-week study period.
In contrast, CHr decreased in subjects treated with epoetin alfa during the same time period.

[2] = tested on: human subjects with end-stage renal disease; experiment: Mean hemoglobin levels in human subjects with end-stage renal disease, 6 weeks TIW; details: six week treatment period; Compound A 1.5 mg/kg and 2.0 mg/kg TIW; epoetin alfa TIW
[3] = tested on: human subjects with stage 3 and stage 4 chronic kidney disease; experiment: Reticulocyte hemoglobin content (CHr) in human subjects with stage 3 or stage 4 chronic kidney disease, 17 weeks
Description: The effect of compound of the present invention on CHr was determined in human subjects with stage 3 and stage 4 chronic kidney disease patients (eGFR<60 ml/min) as follows. Subjects with stage 3 or stage 4 chronic kidney disease not receiving dialysis were administered Compound A at either approximately 1.2 mg/kg twice weekly or 70 mg fixed dose thrice weekly for a period of 17 weeks. Dose adjustments were permitted from week 5 onward to correct and maintain subjects to a target hemoglobin range; however, doses were not allowed to exceed 2.5 mg/kg per dose. CHr values were measured at week 9 and week 17.

[4] = tested on: human patients; experiment: Safety and efficacy of tested doses in human patients; details: doses between 0.7 and 2.5 mg/kg administered TIW, BIW, or QW
Source text: In a particular embodiment, the present invention provides an efficacious therapeutic compound for treating a subject having reduced reticulocyte hemoglobin content. Specifically, the invention comprises the compound [(4-hydroxy-1-methyl-7-phenoxy-isoquinoline-3-carbonyl)-amino]-acetic acid for use in methods of increasing reticulocyte hemoglobin content (CHr) in a subject.

Cc1nc(C(=O)NCC(=O)O)c(O)c2ccc(Oc3ccccc3)cc12 [Compound A, [(4-hydroxy-1-methyl-7-phenoxy-isoquinoline-3-carbonyl)-amino]-acetic acid] was tested, and the “Mean Change (pg) from Baseline CHr at Day 43 (6 weeks) of Treatment” value (from here on “Mean Change (pg) from Baseline CHr”) ([1]; 1 mg/kg TIW, N = 10) was “+0.41 pg”, the “mean increase in CHr over baseline after 6 weeks of treatment” value ([1]; 1.3 mg/kg TIW (N=5)) was 0.85 pg/cell and the “Mean Change (pg) from Baseline CHr” value ([1]; 1.5 mg/kg TIW, N = 9) was “+0.10 pg”. For the same compound, the “mean increase in CHr over baseline after 6 weeks of treatment” value ([1]; 1.8 mg/kg TIW (N=5)) was 0.82 pg/cell, the “Mean Change (pg) from Baseline CHr” value ([1]; 2.0 mg/kg TIW, N = 9) was “+0.44 pg” and the “change from baseline of the mean CHr over time (FIG. 1)” value ([1]; six week treatment period, Compound A 1.0, 1.5 and 2.0 mg/kg TIW, epoetin alfa TIW) was “increase in mean CHr over time”. The “changes in mean hemoglobin levels (FIG. 2)” value [2] was “time-dependent increase in mean hemoglobin levels”, the “maintenance of mean CHr (FIG. 3B)” value ([3]; 70 mg fixed dose TIW, weeks 9 to 17) was “maintenance of mean CHr from 9 to 17 weeks” and the “mean CHr over time (FIG. 3A, 3B)” value ([3]; approximately 1.2 mg/kg BIW or 70 mg TIW, 17 weeks, CKD stage 3/4 not on dialysis) was “mean CHr increased over time”. The “safety and efficacy of tested doses” value [4] was “safe, useful, and effective”.
